Reference: ChEMBL document CHEMBL1121545, “Synthesis of potential inhibitors of hypoxanthine-guaine phosphoribosyltransferase for testing as antiprotozoal agents. 2. 1-Substituted hypoxanthines” (1980)
The source made the active and inactive calls. The calls are words filed in the database; no cut-off is given here.

Experiments:
Mus musculus [1] = test: Compound was tested for the effective dose required for the inhibition of Trypanosoma rhodesiense in mice at 424 mg/kg dose in mice; (2 mice survived of 5 treated); assay type: functional
Mus musculus [2] = test: Compound was tested for the effective dose required for the inhibition of Trypanosoma rhodesiense in mice at 106 mg/kg dose in mice; (1 mice survived of 5 treated); assay type: functional
Mus musculus [3] = test: Compound was tested for the effective dose required for the inhibition of Trypanosoma rhodesiense in mice at 212 mg/kg dose in mice; (1 mice survived of 5 treated); assay type: functional
[4] = target: T1, Hypoxanthine-guanine phosphoribosyltransferase (Homo sapiens) (UniProt P00492); test: Compound was tested for the inhibition of Hypoxanthine-Guanine Phosphoribosyltransferase (from H.Ep.2 cells); no activity
T1 sequence (whole entry): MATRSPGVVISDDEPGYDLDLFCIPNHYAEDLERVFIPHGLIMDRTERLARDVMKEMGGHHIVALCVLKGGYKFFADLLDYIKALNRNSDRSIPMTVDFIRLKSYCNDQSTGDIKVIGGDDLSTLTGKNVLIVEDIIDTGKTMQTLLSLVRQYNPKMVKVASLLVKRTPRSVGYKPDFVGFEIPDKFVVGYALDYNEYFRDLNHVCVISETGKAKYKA

Mus musculus [5] = species on record: Mus musculus; test: Compound was tested for ability to extend the life span of Plasmodium berghei infected mice (Mus musculus); no activity; assay type: functional, organism-based

Row | Structure (SMILES) | Activity [4] | Survivals (Mus musculus [1]) | Activity (Mus musculus [2]) | Survivals (Mus musculus [3]) | Activity (Mus musculus [5])
1 | O=C(CBr)NCCn1cnc2ncnc-2c1O | – | 2 | 1 | 1 | –
2 | [N-]=[N+]=NCCn1cnc2ncnc-2c1O | inactive | – | – | – | inactive
3 | O=C(Nc1ccc(Cn2cnc3ncnc-3c2O)cc1)c1cccc(S(=O)(=O)F)c1 | inactive | – | – | – | inactive
4 | O=C(Nc1ccc(Cn2cnc3ncnc-3c2O)cc1)c1ccc(S(=O)(=O)F)cc1 | inactive | – | – | – | inactive
5 | OCCOc1[nH]cnc2ncnc1-2 | inactive | – | – | – | inactive

The next lines start with results.

Row | Activity [4] | Structure (SMILES) | Survivals (Mus musculus [1]) | Activity (Mus musculus [2]) | Survivals (Mus musculus [3]) | Activity (Mus musculus [5])
6 | inactive | Oc1c2ncnc-2ncn1CCCl | – | – | – | inactive
7 | inactive | O=[N+]([O-])c1ccc(Cn2cnc3ncnc-3c2O)cc1 | – | – | – | inactive
8 | inactive | Nc1ccc(Cn2cnc3ncnc-3c2O)cc1 | – | – | – | inactive
9 | inactive | NCCn1cnc2ncnc-2c1O | – | – | – | inactive
10 | inactive | O=C(Nc1ccc(Cn2cnc3ncnc-3c2O)cc1)c1ccc(Cl)cc1 | – | – | – | inactive
11 | inactive | O=C(CBr)Nc1ccc(Cn2cnc3ncnc-3c2O)cc1 | – | – | – | inactive
